Assay results published in patent publication US8546442B2, “Pyrazolopiperidine compounds as CCR1 receptor antagonists” (Boehringer Ingelheim International GmbH, priority 2010, dated 2013).
pIC50: −log10 of the molar value.

Assays:
CCR1 [1] = biological target: T1, CCR1 (Homo sapiens, UniProt P32246); experiment: calcium flux in CCR1 transfected cells, Method B (Calcium 4 dye, HAMAMATSU FDSS6000); assay type: cell-based; conditions: cells stably expressing recombinant CCR1 and G-alpha-16, MIP-1alpha at EC80
T1 sequence (P32246 1-355): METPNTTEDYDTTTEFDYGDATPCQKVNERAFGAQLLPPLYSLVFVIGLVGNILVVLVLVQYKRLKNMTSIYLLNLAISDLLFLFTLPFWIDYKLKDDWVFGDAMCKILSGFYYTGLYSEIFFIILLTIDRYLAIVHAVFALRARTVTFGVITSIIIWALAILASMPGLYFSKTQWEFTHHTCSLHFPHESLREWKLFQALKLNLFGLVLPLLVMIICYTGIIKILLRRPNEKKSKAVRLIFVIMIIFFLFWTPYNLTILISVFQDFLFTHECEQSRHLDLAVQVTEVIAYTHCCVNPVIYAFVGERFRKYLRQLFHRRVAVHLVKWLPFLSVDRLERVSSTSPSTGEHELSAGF
Method: (§1) Compounds are assessed for the ability to block the interaction of CCR1 and MIP-1α in a functional cellular assay measuring calcium flux in CCR1 transfected cells.
Method B: Non-adherent cells purchased from Chemicon Corporation (HTS005C), stably expressing recombinant CCR1 and G-alpha-16 are grown in RPMI 1640 medium (Mediatech 10-080-CM) supplemented with 10% FBS, 0.4 mg/mL Geneticin and penicillin/streptomycin. On the day of the assay, the cells are loaded with Calcium 4 dye (Molecular Devices R7448) with Probenecid (Invitrogen P346400) at 8E5 cells/mL for 1 hour at room temperature. After 1 hour, they are seeded in a 384-well tissue culture-treated plate at a density of 20,000 cells/well. Appropriately diluted test compound is added to the well to achieve a top concentration of 3,000 nM (diluted 4-fold with 10 doses total). The final concentration of DMSO is 1%. The buffer is HBSS (Invitrogen 14025) with 20 mM HEPES at pH 7.4. The cells incubate 30 minutes at 37 C and then 30 minutes at room temperature. The plates are transferred to the HAMAMATSU FDSS6000 where MIP-1alpha in 1% BSA is added at the EC80 final concentration. All plates must be read within 4 hours of the start of dye-loading. Wells+/−MIP-1alpha containing diluted DMSO instead of compound serve as the controls. Data are analyzed using Activity Base software.

CCR1 [2] = biological target: T1, CCR1; experiment: calcium flux in CCR1 transfected cells, Method A (Fluo-4 NW, FLIPR TETRA); assay type: cell-based; conditions: cells stably expressing recombinant CCR1 and G-alpha-16, MIP-1 alpha at EC80
Method: as §1
Method A: Non-adherent cells purchased from Chemicon Corporation (HTS005C), stably expressing recombinant CCR1 and G-alpha-16 are grown in RPMI 1640 medium (Mediatech 10-080-CM) supplemented with 10% heat-inactivated FBS, 0.4 mg/mL Geneticin and penicillin/streptomycin. On the day of the assay, the cells are transferred to a beaker and dye-loaded in bulk using a Fluo-4 NW Calcium Assay Kit with probenecid (Invitrogen F36205) at 0.8E6 cells/mL for 1 hour at room temperature. After 1 hour, they are seeded in a 384-well tissue culture-treated plate at a density of 20,000 cells/well. Appropriately diluted test compound is added to the well to achieve a top concentration of 3,000 nM (diluted 4-fold with 10 doses total). The final concentration of DMSO is 1%. The buffer is HBSS (Invitrogen 14025) with 20 mM HEPES at pH 7.4. The cells are allowed to incubate 1 hour in the dark at room temperature. The plates are transferred to the FLIPR TETRA where MIP-1 alpha in 1% BSA is added at the EC80 final concentration. Wells+/−MIP-1 alpha containing diluted DMSO instead of compound serve as the controls. Intracellular calcium flux is recorded on the FLIPR TETRA, using excitation at 470/495 nm and emission at 515/575 nm. Data are analyzed using Activity Base software.

CCC[C@H](NC(=O)N1c2cnn(-c3ccc(F)cc3)c2CCC1C(F)(F)F)c1cncc(S(C)(=O)=O)c1 (stereo partly shown) [Example 61] was tested, and the pIC50 (CCR1 [1]) was 8.10 and the pIC50 (CCR1 [2]) was 7.92.
With CC[C@H](NC(=O)N1CCCc2c1cnn2-c1ccc(F)cc1)c1ccc(Br)nc1 [Example 48, 1-(4-Fluorophenyl)-1,5,6,7-tetrahydro-pyrazolo[4,3-b]pyridine-4-carboxylic acid [(S)-1-(6-bromo-pyridin-3-yl)-propyl]-amide] the pIC50 (CCR1 [1]) was 8.70 and the pIC50 (CCR1 [2]) was 7.72.
In the case of CCC[C@H](NC(=O)N1CCCc2c1cnn2-c1ccc(F)cc1)c1ccnc(S(C)(=O)=O)c1 [Example 60], the pIC50 (CCR1 [1]) was 9.52 and the pIC50 (CCR1 [2]) was 9.30.
In the case of CCC[C@H](NC(=O)N1CCCc2c1cnn2-c1ccc(F)cc1F)c1ccnc(S(C)(=O)=O)c1 [Example 62], the pIC50 (CCR1 [1]) was 9.00 and the pIC50 (CCR1 [2]) was 9.00.
CN(C)S(=O)(=O)c1cccc(CNC(=O)N2CCCc3c2cnn3-c2ccc(F)cc2)c1 [Example 33] showed a pIC50 (CCR1 [2]) of 7.72.
C[C@@H](CO)NS(=O)(=O)c1ccc(CNC(=O)N2CCCc3c2cnn3-c2ccc(F)cc2)cc1 [Example 35] was tested, and the pIC50 (CCR1 [2]) was 8.40.
For C[C@H](CO)NS(=O)(=O)c1ccc(CNC(=O)N2CCCc3c2cnn3-c2ccc(F)cc2)cc1 [Example 34], the pIC50 (CCR1 [2]) was 7.70.
Molecule CNS(=O)(=O)c1ccc(CNC(=O)N2CCCc3c2cnn3-c2ccc(F)cc2)c(Cl)c1 [Example 31] has a pIC50 (CCR1 [1]) of 9.00 and a pIC50 (CCR1 [2]) of 8.52.
For CCC[C@H](NC(=O)N1CCCc2c1cnn2-c1ccc(F)cc1)c1cncc(S(C)(=O)=O)c1 [Example 47], the pIC50 (CCR1 [1]) was 9.70 and the pIC50 (CCR1 [2]) was 9.40.
CCC[C@H](NC(=O)N1CCCc2c1cnn2-c1ccc(F)cc1)c1cncc(Br)c1 [Example 46] was tested, and the pIC50 (CCR1 [1]) was 9.70 and the pIC50 (CCR1 [2]) was 9.70.
With CCCC(NC(=O)N1CCCc2c1cnn2-c1ccc(F)cc1)c1cncc(Br)c1 (stereo not shown) [Example 39] the pIC50 (CCR1 [1]) was 9.40 and the pIC50 (CCR1 [2]) was 9.70.
Work on CNS(=O)(=O)c1ccc(CNC(=O)N2CCCc3c2cnn3-c2ccc(F)cc2)cc1 [Example 22] yielded a pIC50 (CCR1 [1]) of 8.30 and a pIC50 (CCR1 [2]) of 7.66.
CC[C@H](NC(=O)N1CCCc2c1cnn2-c1ccc(F)cc1)c1ccc(S(C)(=O)=O)nc1 [Example 51] showed a pIC50 (CCR1 [1]) of 8.52 and a pIC50 (CCR1 [2]) of 7.85.
C[C@H](NC(=O)N1CCCc2c1cnn2-c1ccc(F)cc1)c1cncc(Br)c1 [Example 41] showed a pIC50 (CCR1 [1]) of 8.70 and a pIC50 (CCR1 [2]) of 8.22.
Work on CCC[C@H](NC(=O)N1CCCc2c1cnn2-c1ccc(F)cc1)c1ccc(S(C)(=O)=O)nc1 [Example 50] yielded a pIC50 (CCR1 [1]) of 9.05 and a pIC50 (CCR1 [2]) of 8.40.
CCC[C@H](NC(=O)N1c2cnn(-c3ccc(F)cc3)c2CCC1C(F)(F)F)c1ccnc(S(C)(=O)=O)c1 (single isomer, unassigned) [Example 56] was tested, and the pIC50 (CCR1 [1]) was 8.22 and the pIC50 (CCR1 [2]) was 8.00.
O=C(NCc1ccc(S(=O)(=O)NC2CCOCC2)cc1)N1CCCc2c1cnn2-c1ccc(F)cc1 [Example 28, 1-(4-Fluorophenyl)-1,5,6,7-tetrahydro-pyrazolo[4,3-b]pyridine-4-carboxylic acid 4-(tetrahydro-pyran-4-ylsulfamoyl)-benzylamide] gave a pIC50 (CCR1 [1]) of 8.00 and a pIC50 (CCR1 [2]) of 7.40.
With CS(=O)(=O)c1ccc(CNC(=O)N2CCCc3c2cnn3-c2ccc(F)cc2)cc1 [Example 25] the pIC50 (CCR1 [1]) was 7.19 and the pIC50 (CCR1 [2]) was 7.29.
CCCC(NC(=O)N1CCCc2c1cnn2-c1ccc(F)cc1)c1ccc(S(C)(=O)=O)nc1 (stereo not shown) [Example 36] gave a pIC50 (CCR1 [1]) of 8.52 and a pIC50 (CCR1 [2]) of 8.52.
CS(=O)(=O)c1cccc(CNC(=O)N2CCCc3c2cnn3-c2ccc(F)cc2)c1 [Example 23] was tested, and the pIC50 (CCR1 [1]) was 7.66 and the pIC50 (CCR1 [2]) was 7.51.
Work on CC[C@H](NC(=O)N1CCCc2c1cnn2-c1ccc(F)cc1)c1cncc(S(C)(=O)=O)c1 [Example 45] yielded a pIC50 (CCR1 [1]) of 9.22 and a pIC50 (CCR1 [2]) of 9.00.
COCCNS(=O)(=O)c1ccc(CNC(=O)N2CCCc3c2cnn3-c2ccc(F)cc2)cc1 [Example 26] gave a pIC50 (CCR1 [1]) of 8.40 and a pIC50 (CCR1 [2]) of 8.22.
For CCC[C@H](NC(=O)N1CCCc2c1cnn2-c1c(F)cc(F)cc1F)c1ccnc(S(C)(=O)=O)c1 [Example 63], the pIC50 (CCR1 [1]) was 7.85 and the pIC50 (CCR1 [2]) was 7.85.
Work on C[C@H](NC(=O)N1CC(C(F)(F)F)Cc2c1cnn2-c1ccc(F)cc1)c1ccnc(S(C)(=O)=O)c1 (stereo partly shown) [Example 83] yielded a pIC50 (CCR1 [1]) of 5.90.
With CCC[C@H](NC(=O)N1c2cnn(-c3ccc(F)cc3)c2CCC1C(F)(F)F)c1ccc(Br)c(OC)c1 (stereo partly shown) [Example 104] the pIC50 (CCR1 [1]) was 7.24.
Molecule CC[C@H](NC(=O)N1CCCc2c1cnn2-c1ccc(F)cc1)c1ccnc(S(C)(=O)=O)c1 [Example 59] has a pIC50 (CCR1 [1]) of 9.22 and a pIC50 (CCR1 [2]) of 9.40.
CCC[C@H](NC(=O)N1CC(C)Cc2c1cnn2-c1ccc(F)cc1)c1ccnc(S(C)(=O)=O)c1 (stereo partly shown) [Example 102] gave a pIC50 (CCR1 [1]) of 9.22.
With CCC[C@H](NC(=O)N1CCCc2c1c(C)nn2-c1ccc(F)cc1)c1ccnc(S(C)(=O)=O)c1 [Example 98] the pIC50 (CCR1 [1]) was 5.80.
For O=C(NCc1ccc(F)cc1)N1CCCc2c1cnn2-c1ccc(F)cc1 [Example 7], the pIC50 (CCR1 [1]) was 6.74.
With CNS(=O)(=O)c1ccc(CNC(=O)N2CCCc3c2cnn3-c2ccc(F)cc2)c(F)c1 [Example 38] the pIC50 (CCR1 [1]) was 8.70 and the pIC50 (CCR1 [2]) was 7.96.
In the case of CC[C@H](NC(=O)N1c2cnn(-c3ccc(F)cc3)c2CCC1C(F)(F)F)c1ccc(S(C)(=O)=O)c(O)c1 (stereo partly shown) [Example 85], the pIC50 (CCR1 [1]) was 7.64.
With O=C(NCc1ccc(S(=O)(=O)N2CCOCC2)cc1)N1CCCc2c1cnn2-c1ccc(F)cc1 [Example 27] the pIC50 (CCR1 [1]) was 7.17.
In the case of CCC[C@H](NC(=O)N1c2cnn(-c3ccc(F)cc3)c2CCC1C)c1ccnc(S(C)(=O)=O)c1 (single isomer, unassigned) [Example 81], the pIC50 (CCR1 [1]) was 8.40.
CC[C@H](NC(=O)N1c2cnn(-c3ccc(F)cc3)c2CCC1C)c1ccnc(S(C)(=O)=O)c1 (stereo partly shown) [Example 55] gave a pIC50 (CCR1 [1]) of 7.92 and a pIC50 (CCR1 [2]) of 7.89.
In the case of Cc1ccccc1CNC(=O)N1CCCc2c1cnn2-c1ccc(F)cc1 [Example 4], the pIC50 (CCR1 [1]) was 6.55.
Work on CCC[C@H](NC(=O)N1CC(C(=O)O)Cc2c1cnn2-c1ccc(F)cc1)c1ccnc(S(C)(=O)=O)c1 (stereo partly drawn) [Example 115, 1-(4-Fluorophenyl)-4-[(S)-1-(2-methanesulfonyl-pyridin-4-yl)-butylcarbamoyl]-4,5,6,7-tetrahydro-1H-pyrazolo[4,3-b]pyridine-6-carboxylic acid] yielded a pIC50 (CCR1 [1]) of 7.64.
With CC[C@H](NC(=O)N1CCCc2c1cnn2-c1ccc(F)cc1)c1cncc(Br)c1 [Example 42] the pIC50 (CCR1 [1]) was 9.70 and the pIC50 (CCR1 [2]) was 9.40.
CCC[C@H](NC(=O)N1c2cnn(-c3ccc(F)cc3)c2CCC1C)c1ccnc(S(C)(=O)=O)c1 (stereo partly shown) [Example 70] showed a pIC50 (CCR1 [1]) of 8.30.
For CCC[C@H](NC(=O)N1CC(C(=O)NC)Cc2c1cnn2-c1ccc(F)cc1)c1ccnc(S(C)(=O)=O)c1 (stereo partly shown) [Example 116], the pIC50 (CCR1 [1]) was 9.00.
Work on CCC[C@H](NC(=O)N1CC(C)(C)Cc2c1cnn2-c1ccc(F)cc1)c1ccnc(S(C)(=O)=O)c1 [Example 103] yielded a pIC50 (CCR1 [1]) of 9.15.
O=C(NCc1cc(Cl)cc(Cl)c1)N1CCCc2c1cnn2-c1ccc(F)cc1 [Example 40] gave a pIC50 (CCR1 [1]) of 8.52 and a pIC50 (CCR1 [2]) of 7.48.
Molecule CCC[C@H](NC(=O)N1c2cnn(-c3ccc(F)cc3)c2CCC1C)c1ccnc(S(C)(=O)=O)c1 (single isomer, unassigned) [Example 80] has a pIC50 (CCR1 [1]) of 7.51.
CCC[C@H](NC(=O)N1c2cnn(-c3ccc(F)cc3)c2CCC1C(F)(F)F)c1cc(S(C)(=O)=O)ccc1F (single isomer, unassigned) [Example 77] was tested, and the pIC50 (CCR1 [1]) was 7.43.
In the case of COc1cccc(CNC(=O)N2CCCc3c2cnn3-c2ccc(F)cc2)c1 [Example 20], the pIC50 (CCR1 [1]) was 7.04.
CCC[C@H](NC(=O)N1c2cnn(-c3ccc(F)cc3)c2CCC1C(F)(F)F)c1ccc(Br)cc1F (stereo partly shown) [Example 68] was tested, and the pIC50 (CCR1 [1]) was 6.69.
Work on CCC[C@H](NC(=O)N1CCCc2c1cnn2-c1ccc(F)cc1)c1ccc(Br)nc1 [Example 49] yielded a pIC50 (CCR1 [1]) of 8.70 and a pIC50 (CCR1 [2]) of 7.92.
Work on CCCC(NC(=O)N1CCCc2c1cnn2-c1ccc(F)cc1)c1cncc(S(C)(=O)=O)c1 (stereo not shown) [Example 24] yielded a pIC50 (CCR1 [2]) of 9.22.
